# Results from patent US20250074911A1, “MACROCYCLIC BTK INHIBITORS” (Crossfire Oncology Holding B.V., priority 2021, published 2025).
# How the values were obtained:
# BTK T474I = BTK T474I (Homo sapiens (Human), UniProt Q06187, T474I); assay: Binding kinetics measurements (Surface Plasmon Resonance) on BTK T474I; settings: for Kd: binding affinity by Surface Plasmon Resonance (SPR); for Tau (h) BTK T474I (Act): target residence time, SPR
# Procedure, shortened: (§1)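 SPR, single cycle kinetics: 5 injections, 3.16-316 nM, 30 μl/min (avoids mass transport limitation), 22° C, 1% DMSO buffer. Protein immobilized at 4° C on streptavidin chip, biocytin block. Blank run first; reference channel and buffer curves subtracted.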
# [1] = target: full-length wt-BTK enzyme (Homo sapiens (Human), UniProt Q06187); assay: Biochemical kinase assay wt-BTK (IMAP)
# Sequence of full-length wt-BTK enzyme (Q06187 whole entry): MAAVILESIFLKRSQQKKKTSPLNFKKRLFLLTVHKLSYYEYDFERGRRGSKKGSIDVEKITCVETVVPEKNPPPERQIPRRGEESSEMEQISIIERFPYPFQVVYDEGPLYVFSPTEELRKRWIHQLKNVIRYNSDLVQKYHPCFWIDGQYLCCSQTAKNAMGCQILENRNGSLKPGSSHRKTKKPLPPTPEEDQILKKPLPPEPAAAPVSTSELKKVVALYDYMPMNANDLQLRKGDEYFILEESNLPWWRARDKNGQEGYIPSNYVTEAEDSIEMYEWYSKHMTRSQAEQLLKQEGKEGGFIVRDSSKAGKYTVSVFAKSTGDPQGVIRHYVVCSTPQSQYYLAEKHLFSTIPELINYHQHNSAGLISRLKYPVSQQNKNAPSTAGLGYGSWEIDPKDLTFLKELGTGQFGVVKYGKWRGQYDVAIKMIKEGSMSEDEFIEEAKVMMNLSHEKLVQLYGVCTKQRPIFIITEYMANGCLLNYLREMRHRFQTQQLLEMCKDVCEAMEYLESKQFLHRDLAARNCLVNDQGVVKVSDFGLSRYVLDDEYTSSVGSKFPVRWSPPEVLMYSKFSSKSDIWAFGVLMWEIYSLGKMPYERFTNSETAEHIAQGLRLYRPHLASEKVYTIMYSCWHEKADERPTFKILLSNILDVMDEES
# Procedure, shortened: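 IMAP fluorescence polarization assay: 1.2 nM enzyme pre-incubated 1 h with compound at room temperature, then 50 nM fluorescein-labeled MBP-derived peptide and 4 μM ATP added. Reaction ran 2 h at room temperature in the dark before quenching with IMAP binding solution.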
# REC-1 T474I cell lines = assay: Cell proliferation assay REC-1 BTK T474I knock-in cells (ATPlite, 72 hours); format: cell-based; settings: Homo sapiens, Rec1; 72 hours; read-out: IC50 REC-1 T474I
# Procedure, shortened: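 REC-1 cells carrying CRISPR knock-in mutant BTK, single-cell cloned and sequence-confirmed, were exposed to compound for 72 h and read by ATPlite luminescence. Percentage growth was calculated against the signal at the start of incubation and against untreated 0.3% DMSO wells as maximum growth.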
# [2] = tested on: wt-REC-1 mantle cell lymphoma cells; assay: Cell proliferation assay wt-REC-1 (ATPlite, 72 hours); format: cell-based; settings: 72 h; read-out: IC50 wt-REC-1
# Procedure, shortened: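 Luminescent viability read over 72 h, start-of-incubation signal recorded separately to separate growth from cell death. Percentage growth referenced to compound-free 0.3% DMSO wells; IC50 from 4-parameter logistic fit.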
# BTK C481S = BTK C481S (Homo sapiens (Human), UniProt Q06187, C481S); assay: Binding kinetics measurements (Surface Plasmon Resonance) on BTK C481S; settings: for Kd: binding affinity by Surface Plasmon Resonance (SPR); for Tau (h) BTK C418S (Act): target residence time for BTK C481S, SPR
# Sequence of BTK C481S (Q06187 whole entry C481S): as the sequence (Q06187 whole entry) above, with C481S counted along it
# Procedure, shortened: as §1
# [3] = target: full-length BTK C481S enzyme (Homo sapiens (Human), UniProt Q06187, C481S); assay: Biochemical kinase assay BTK C481S (IMAP)
# Sequence of full-length BTK C481S enzyme (Q06187 whole entry C481S): as the sequence (Q06187 whole entry) above, with C481S counted along it
# Procedure, shortened: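 Full-length BTK C481S (1.2 nM) was pre-incubated with compound for 1 h at room temperature in the dark, then reacted with fluorescein-labelled MBP-derived peptide (50 nM) and ATP (7 μM) for 2 h. Reactions were quenched with IMAP binding solution, and IC50 values were derived from fluorescence polarization.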
# Sequence of BTK T474I (Q06187 whole entry T474I): as the sequence (Q06187 whole entry) above, with T474I counted along it
SMILES,Kd (BTK T474I),Tau (h) BTK T474I (Act) (BTK T474I),IC50 [1],IC50 [2],Kd (BTK C481S),Tau (h) BTK C418S (Act) (BTK C481S),IC50 [3],IC50 (REC-1 T474I cell lines)
Nc1ncc2c3c1c(-c1ccc(C(=O)Nc4cc(C(F)(F)F)ccn4)cc1)nn3[C@@H]1CCC[C@H](C1)NC(=O)CCOC/C=C/2 [Example 25],< 2 nM,3.02 h,< 5 nM,< 100 nM,< 5 nM,12.17 h,< 5 nM,< 100 nM
N#Cc1ccnc(NC(=O)c2ccc(-c3nc4n5c(cnc(N)c35)/C=C/CCOCCC(=O)N[C@@H]3CC[C@@H]4C3)cc2)c1 [Example 201],–,1.15 h,< 5 nM,< 100 nM,–,1.91 h,< 5 nM,< 100 nM
N#Cc1ccnc(NC(=O)c2ccc(-c3nc4n5c(cnc(N)c35)/C=C/CCCCCC(=O)N[C@@H]3CC[C@@H]4C3)cc2)c1 [Example 204],–,0.90 h,< 5 nM,< 100 nM,< 5 nM,–,< 5 nM,< 100 nM

# Now from value to compound, other results behind:
Kd (BTK T474I),Tau (h) BTK T474I (Act) (BTK T474I),IC50 [1],IC50 [2],Kd (BTK C481S),Tau (h) BTK C418S (Act) (BTK C481S),IC50 [3],SMILES,IC50 (REC-1 T474I cell lines)
< 2 nM,2.64 h,< 5 nM,< 100 nM,< 5 nM,3.17 h,< 5 nM,C[C@@H]1CC(=O)N[C@@H]2CCC[C@H](C2)n2nc(-c3ccc(C(=O)Nc4cc(C(F)(F)F)ccn4)cc3)c3c(N)ncc(c32)/C=C/CCN1 [Example 45],< 100 nM
–,0.85 h,< 5 nM,< 100 nM,< 5 nM,2.43 h,< 5 nM,N#Cc1ccnc(NC(=O)c2ccc(-c3nc4n5c(cnc(N)c35)/C=C/CCCCCC(=O)N[C@@H]3CCC[C@@H]4C3)cc2)c1 [Example 184],< 100 nM
